Reference: patent US20240261267A1, “METHODS FOR TREATING MULTIPLE SCLEROSIS” (Vanda Pharmaceuticals Inc., priority 2021, published 2024)

Test system: primary mouse OPCs
Experiment: differentiation assay, immunocytochemical staining for O4 and MBP
Type: cell-based
Details: for MBP expression / O4 expression: normalized to DAPI and negative control
Description: The effects of ponesimod, a selective S1P1 receptor agonist, and A971432, a selective S1P5 receptor agonist, on oligodendrocyte precursor cell (OPC) migration and differentiation were evaluated. Nine concentrations were tested (logarithmic dilutions ranging from 0.3 nM to 3000 nM, n=6 per concentration). Fingolimod phosphate (P-FTY720, 3000 nM, n=6) was included as a positive control, 0.1% DMSO was included (min.one/plate) as a negative control. Primary mouse OPCs were harvested on postnatal day 0 or 1 and mixed glia cultures were maintained for 14 days. Primary OPCs were then purified using the shake-off method, and used for either a migration assay, or a differentiation assay, as detailed below. To harvest primary mouse OPCs, cortices are isolated from mouse pups on postnatal day 0 or 1 and placed in ice-cold Dulbecco's Modified Eagle Medium (DMEM) (Sigma Aldrich, Overijse, BE). The cortices are homogenized and centrifuged for 5 minutes at 300 G. The supernatant is removed, and a papain solution is added for 30 minutes (125 uL DMEM solution per brain containing 20 units/ml papain and 40 μg/ml DNase, at 37 degrees). Digestion is inactivated by adding 9 ml cold DMEM. The solution is then centrifuged for 5 minutes at […]. The supernatant is carefully removed, and the pellet is resuspended in 2-5 ml culture medium (DMEM with 10% fetal calf serum (Biowest, Nuaillé, FR) and 1% pen/strep (Sigma Aldrich, Overijse, BE)). […] Cell suspension is divided over PLL (Sigma Aldrich, Overijse, BE)-coated flasks (2 brains per flask) and DMEM is added to a final volume of 10 ml. DMEM is replaced on day 4, 7, and 11. On day 7 and 11, insulin (Sigma Aldrich, Overijse, BE) is added to the medium (5μg/ml). On day 14, OPCs are separated from astrocytes by the shake-off method: flasks are placed on a shaker for 45 minutes at 75 rpm (37 degrees). The medium is then aspirated and discarded, and 10 ml fresh culture medium is added. Flasks are then returned to the shaker for 16-18 hours shaking at 280 rpm. Next, the medium is isolated, and this cell suspension is placed in a plastic petri dish and incubated for 25 minutes. The medium, which contains the OPCs, is then collected and centrifuged for 5 minutes at 300 G. Cells are then resuspended in SATO differentiation medium containing 2% horse serum, 2% B-27, 50 U/ml P/S, 2.4 μl/ml transferrin, 1.04 μl/ml L-thyroxine, 1 μl/ml putrescin, 1 μl/ml progesterone, 1 μl/ml TIT, 0.74 μl/ml sodium selenite and 0.5 μl/ml insulin (all from Sigma-Aldrich, Overijse, BE). […] After shake-off, cells are reset for their differentiation status: one hour after plating, cells are treated with platelet-derived growth factor (PDGF, 10 ng/ml, Peprotech EC Ltd, London, UK) and fibroblast growth factor (fgf, 10 ng/ml, Peprotech EC Ltd, London, UK). Twenty-four hours after plating, cells are treated again with fgf (10 ng/ml). 150,000 cells are plated onto glass coverslips in 24-well plates. […] Aspecific binding was blocked for 30 minutes with 1% bovine serum albumin (BSA) in 0.1% PBS-T, followed by incubation with primary antibodies (O4:R&D systems, Minneapolis, USA, MBP:Merck, Overijse, BE) for four hours at room temperature. After three washing steps with PBS (Lonza group, Bornem, BE), cells are incubated with Invitrogen Alexa Fluor 488 (Alexa 488) or Invitrogen Alexa Fluor 555 (Alexa 555) conjugated secondary antibody for one hour (Life technologies, Carlsbad, USA). […] Sigma-Aldrich, Overijse, […]). Coverslips are mounted with Dako mounting medium (Dako, Carpinteria, USA) and analyzed using a fluorescence microscope (Leica DM2000 LED). Images are quantified using Fiji, ImageJ software. Ponesimod and […] effect on primary mouse OPC differentiation using immunocytochemical staining for O4 and MBP, markers of early and late differentiation stages, respectively, was measured. Fingolimod phosphate, which served as a positive control in the migration assay, was included as well, 0.1% DMSO was included as a negative control. […]

Structure (SMILES)	MBP expression (1000 nM)	O4 expression (1000 nM)	O4 expression (3000 nM)	OPC differentiation (staining for O4 and MBP) (high concentration 1000 nM)	MBP expression (300 nM)	O4 expression (300 nM)	OPC differentiation (staining for O4 and MBP) (high concentrations 300 nM-1000 nM)
O=C(O)C1CN(Cc2ccc(OCc3ccc(Cl)c(Cl)c3)cc2)C1 [A97]	significant increase	marginally increased	marginally increased	modest increases			
CCC/N=C1\S/C(=C\c2ccc(OC[C@H](O)CO)c(Cl)c2)C(=O)N1c1ccccc1C [ponesimod, (R)-5-[3-chloro-4-(2,3-dihydroxy-propoxy)-benz[Z]ylidene]-2-([Z]-propylimino)-3-o-tolyl-thiazolidin-4-one]	did not show significantly increased MBP expression	marginally increased			significant increase	did not show significantly increased O4 expression	Enhanced OPC differentiation
